Reference: BindingDB's records for patent US11859014 (Emory University, 2024)

The molecules below were run against Genome polyprotein (Hu/NV/NV/1968/US, UniProt Q83883) (assay: Fret Assay).
Description: (§1) The ability of these compounds to inhibit the NoV, specifically Minerva virus protease catalytic Cys139 covalently (IC50 and Ki) was determined with an enzyme kinetic assay. NoV strains, specifically GII.4 such as the Minerva virus are responsible for causing the majority (80%) of infections in humans. The activity of the inhibitors was evaluated by monitoring the cleavage of a FRET substrate every one minute for 20 minutes (excitation/emission: 488/520 nm) using a SpectraMax M5 microplate reader (Molecular Devices, Sunnyvale CA). Serial dilutions of each inhibitor were incubated with enzyme for 90 minutes at 37° C. before addition of the FRET substrate to ensure complete inactivation. Commercially available protease inhibitors chymostatin and rupintrivir were used as controls.

Chain of Genome polyprotein (Hu/NV/NV/1968/US, UniProt Q83883) (Q83883 whole entry): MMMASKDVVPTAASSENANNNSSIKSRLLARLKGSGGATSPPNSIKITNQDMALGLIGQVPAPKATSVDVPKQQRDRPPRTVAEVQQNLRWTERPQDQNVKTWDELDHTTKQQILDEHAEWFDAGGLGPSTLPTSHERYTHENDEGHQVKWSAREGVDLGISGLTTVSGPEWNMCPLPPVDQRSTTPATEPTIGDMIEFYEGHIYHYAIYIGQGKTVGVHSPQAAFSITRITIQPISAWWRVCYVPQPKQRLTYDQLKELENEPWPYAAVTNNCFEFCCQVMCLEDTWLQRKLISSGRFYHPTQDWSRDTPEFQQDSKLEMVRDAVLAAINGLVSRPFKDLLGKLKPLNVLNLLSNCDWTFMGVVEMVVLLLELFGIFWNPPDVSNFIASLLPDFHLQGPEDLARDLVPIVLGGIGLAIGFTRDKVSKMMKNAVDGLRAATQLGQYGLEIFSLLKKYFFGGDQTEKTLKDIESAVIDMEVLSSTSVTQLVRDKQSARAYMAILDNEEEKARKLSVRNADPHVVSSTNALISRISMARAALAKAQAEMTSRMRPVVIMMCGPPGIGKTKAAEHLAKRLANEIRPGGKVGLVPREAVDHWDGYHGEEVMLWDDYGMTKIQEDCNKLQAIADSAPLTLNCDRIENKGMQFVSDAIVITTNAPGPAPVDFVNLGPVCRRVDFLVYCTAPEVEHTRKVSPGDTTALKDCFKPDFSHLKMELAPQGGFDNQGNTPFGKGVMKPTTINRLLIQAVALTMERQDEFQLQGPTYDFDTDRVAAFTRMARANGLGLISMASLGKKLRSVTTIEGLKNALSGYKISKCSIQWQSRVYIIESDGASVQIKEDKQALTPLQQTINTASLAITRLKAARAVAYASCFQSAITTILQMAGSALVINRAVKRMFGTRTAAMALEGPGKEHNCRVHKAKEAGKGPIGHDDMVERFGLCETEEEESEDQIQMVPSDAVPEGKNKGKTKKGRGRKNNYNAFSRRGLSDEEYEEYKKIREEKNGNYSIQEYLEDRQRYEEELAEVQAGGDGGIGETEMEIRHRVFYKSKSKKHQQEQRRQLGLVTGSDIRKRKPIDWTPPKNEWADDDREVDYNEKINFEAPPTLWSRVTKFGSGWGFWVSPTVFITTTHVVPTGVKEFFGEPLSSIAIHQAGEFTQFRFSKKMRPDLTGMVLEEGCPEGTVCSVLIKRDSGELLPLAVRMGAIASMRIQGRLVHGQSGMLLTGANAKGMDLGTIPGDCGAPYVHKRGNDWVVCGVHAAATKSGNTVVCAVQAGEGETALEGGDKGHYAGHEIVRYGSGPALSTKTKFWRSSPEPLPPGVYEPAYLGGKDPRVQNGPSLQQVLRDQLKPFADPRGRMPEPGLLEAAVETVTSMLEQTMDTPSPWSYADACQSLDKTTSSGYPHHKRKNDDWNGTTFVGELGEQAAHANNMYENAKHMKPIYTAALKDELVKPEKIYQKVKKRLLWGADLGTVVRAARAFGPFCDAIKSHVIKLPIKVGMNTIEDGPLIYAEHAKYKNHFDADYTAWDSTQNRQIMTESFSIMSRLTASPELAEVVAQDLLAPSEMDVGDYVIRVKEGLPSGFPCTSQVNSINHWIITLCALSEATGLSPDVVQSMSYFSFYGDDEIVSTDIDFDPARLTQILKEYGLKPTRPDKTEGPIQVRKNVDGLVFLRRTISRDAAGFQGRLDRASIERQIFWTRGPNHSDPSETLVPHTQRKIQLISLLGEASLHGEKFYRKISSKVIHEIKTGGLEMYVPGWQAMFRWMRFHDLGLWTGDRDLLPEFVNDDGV

Row | SMILES | IC50 | Ki
1 | CC(C)C[C@H](NC(=O)[C@H](Cc1ccc(O)cc1)NC(=O)OCc1ccccc1)C(=O)N[C@H](C=O)C[C@@H]1CCCNC1=O [US11859014, Compound 11] | 44 nM | 123 nM
2 | CC(C)C[C@H](NC(=O)[C@H](Cc1cccc2ccccc12)NC(=O)OCc1ccccc1)C(=O)N[C@H](C=O)C[C@@H]1CCCNC1=O [US11859014, Compound 19] | 80 nM | 155 nM
3 | CC(C)C[C@H](NC(=O)[C@H](Cc1cccc2ccccc12)NC(=O)c1cnccn1)C(=O)N[C@H](C=O)C[C@@H]1CCCNC1=O [US11859014, Compound 23] | 96 nM | 528 nM
4 | CC(C)C[C@H](NC(=O)[C@H](Cc1cccc2ccccc12)NC(=O)c1cnccn1)C(=O)N[C@H](C=O)C[C@@H]1CCNC1=O [US11859014, Compound 29] | 112 nM | 350 nM

What follows are molecules tested against Genome polyprotein (Norovirus Hu/GII.P4_GII.4/Minerva/2006/USA, UniProt A0A0K2E2J2) (assay: Fret Assay).
Chain of Genome polyprotein (Norovirus Hu/GII.P4_GII.4/Minerva/2006/USA, UniProt A0A0K2E2J2) (A0A0K2E2J2 whole entry): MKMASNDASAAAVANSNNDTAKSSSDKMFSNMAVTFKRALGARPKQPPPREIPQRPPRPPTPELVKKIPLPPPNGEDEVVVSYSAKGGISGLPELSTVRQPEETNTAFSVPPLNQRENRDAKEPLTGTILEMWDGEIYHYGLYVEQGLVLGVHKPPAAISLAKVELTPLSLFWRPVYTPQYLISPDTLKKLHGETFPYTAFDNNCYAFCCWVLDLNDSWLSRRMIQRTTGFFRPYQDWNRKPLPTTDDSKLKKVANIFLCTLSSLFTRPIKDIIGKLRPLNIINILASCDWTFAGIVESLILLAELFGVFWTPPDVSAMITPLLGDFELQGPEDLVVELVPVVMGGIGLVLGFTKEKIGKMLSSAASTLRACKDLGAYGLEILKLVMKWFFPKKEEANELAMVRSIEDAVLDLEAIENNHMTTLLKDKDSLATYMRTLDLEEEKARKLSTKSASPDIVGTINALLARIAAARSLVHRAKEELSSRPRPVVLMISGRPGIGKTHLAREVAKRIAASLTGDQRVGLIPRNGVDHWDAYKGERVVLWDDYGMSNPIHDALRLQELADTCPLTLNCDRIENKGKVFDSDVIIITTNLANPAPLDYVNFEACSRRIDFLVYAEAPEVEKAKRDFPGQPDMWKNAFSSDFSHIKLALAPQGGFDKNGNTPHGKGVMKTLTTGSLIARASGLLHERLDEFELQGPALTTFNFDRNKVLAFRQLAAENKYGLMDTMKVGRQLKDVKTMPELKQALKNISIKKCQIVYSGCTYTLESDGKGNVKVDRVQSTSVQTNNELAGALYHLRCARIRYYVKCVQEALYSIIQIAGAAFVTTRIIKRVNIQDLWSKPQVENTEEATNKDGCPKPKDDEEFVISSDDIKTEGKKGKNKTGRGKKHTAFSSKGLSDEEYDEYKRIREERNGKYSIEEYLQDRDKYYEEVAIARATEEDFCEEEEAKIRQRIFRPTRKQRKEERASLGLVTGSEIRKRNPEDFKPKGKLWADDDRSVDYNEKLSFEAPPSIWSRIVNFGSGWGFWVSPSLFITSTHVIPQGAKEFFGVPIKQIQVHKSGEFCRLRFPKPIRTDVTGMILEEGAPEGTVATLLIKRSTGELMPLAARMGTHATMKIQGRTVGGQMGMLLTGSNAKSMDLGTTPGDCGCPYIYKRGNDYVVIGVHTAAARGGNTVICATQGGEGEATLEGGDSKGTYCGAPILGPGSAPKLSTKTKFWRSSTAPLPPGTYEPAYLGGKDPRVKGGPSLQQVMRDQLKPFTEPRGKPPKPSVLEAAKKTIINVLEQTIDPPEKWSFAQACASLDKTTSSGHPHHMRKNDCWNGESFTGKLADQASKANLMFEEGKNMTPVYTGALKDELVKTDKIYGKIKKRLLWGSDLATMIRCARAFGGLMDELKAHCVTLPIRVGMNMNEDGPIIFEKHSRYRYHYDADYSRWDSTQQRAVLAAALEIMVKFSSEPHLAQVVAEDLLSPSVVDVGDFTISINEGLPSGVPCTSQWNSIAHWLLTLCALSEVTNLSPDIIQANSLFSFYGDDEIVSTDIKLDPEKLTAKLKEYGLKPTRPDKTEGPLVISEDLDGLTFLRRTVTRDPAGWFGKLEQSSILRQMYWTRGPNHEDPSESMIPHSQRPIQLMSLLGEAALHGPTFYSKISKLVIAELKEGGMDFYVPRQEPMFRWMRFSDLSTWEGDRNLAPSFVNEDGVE
Description: as §1

Row | SMILES | Ki | IC50
5 | CC(C)C[C@H](NC(=O)[C@H](Cc1ccc(O)cc1)NC(=O)OCc1ccccc1)C(=O)N[C@H](C=O)C[C@@H]1CCCNC1=O [US11859014, Compound 11] | 427 nM | 
6 | CC(C)C[C@H](NC(=O)[C@H](Cc1cccc2ccccc12)NC(=O)OCc1ccccc1)C(=O)N[C@H](C=O)C[C@@H]1CCCNC1=O [US11859014, Compound 19] | 1190 nM | 
7 | CC(C)C[C@H](NC(=O)[C@H](Cc1cccc2ccccc12)NC(=O)c1cnccn1)C(=O)N[C@H](C=O)C[C@@H]1CCCNC1=O [US11859014, Compound 23] |  | 204 nM
8 | CC(C)C[C@H](NC(=O)[C@H](Cc1cccc2ccccc12)NC(=O)c1cnccn1)C(=O)N[C@H](C=O)C[C@@H]1CCNC1=O [US11859014, Compound 29] | 670 nM | 
9 | CC(C)C[C@H](NC(=O)[C@H](Cc1ccc(F)cc1)NC(=O)OCc1ccccc1)C(=O)N[C@H](C=O)C[C@@H]1CCCNC1=O [US11859014, Compound 35] | 858 nM | 167 nM
10 | CC(C)C[C@H](NC(=O)[C@H](Cc1cccc2ccccc12)NC(=O)OCc1ccccc1)C(=O)N[C@H](/C=C(\C#N)C(N)=O)C[C@@H]1CCCNC1=O [US11859014, Compound 36] | 3600 nM | 
11 | O=C[C@H](C[C@@H]1CCCNC1=O)NC(=O)[C@H](Cc1ccccc1)NC(=O)[C@H](Cc1cccc2ccccc12)NC(=O)OCc1ccccc1 [US11859014, Compound 83] |  | 482 nM
12 | CCOC(=O)/C=C/[C@H](C[C@@H]1CCNC1=O)NC(=O)[C@@H](CC(=O)[C@@H](NC(=O)c1cc(C)on1)C(C)C)Cc1ccc(F)cc1 [US11859014, Compound rupintrivir] | 8200 nM | 23600 nM
